# What was measured:
# [1] = target: T1, Prostaglandin G/H synthase 2 (Ovis aries, UniProt P79208); test: In Vitro Cyclo-Oxygenase Inhibition Assay
# T1 sequence (P79208 whole entry): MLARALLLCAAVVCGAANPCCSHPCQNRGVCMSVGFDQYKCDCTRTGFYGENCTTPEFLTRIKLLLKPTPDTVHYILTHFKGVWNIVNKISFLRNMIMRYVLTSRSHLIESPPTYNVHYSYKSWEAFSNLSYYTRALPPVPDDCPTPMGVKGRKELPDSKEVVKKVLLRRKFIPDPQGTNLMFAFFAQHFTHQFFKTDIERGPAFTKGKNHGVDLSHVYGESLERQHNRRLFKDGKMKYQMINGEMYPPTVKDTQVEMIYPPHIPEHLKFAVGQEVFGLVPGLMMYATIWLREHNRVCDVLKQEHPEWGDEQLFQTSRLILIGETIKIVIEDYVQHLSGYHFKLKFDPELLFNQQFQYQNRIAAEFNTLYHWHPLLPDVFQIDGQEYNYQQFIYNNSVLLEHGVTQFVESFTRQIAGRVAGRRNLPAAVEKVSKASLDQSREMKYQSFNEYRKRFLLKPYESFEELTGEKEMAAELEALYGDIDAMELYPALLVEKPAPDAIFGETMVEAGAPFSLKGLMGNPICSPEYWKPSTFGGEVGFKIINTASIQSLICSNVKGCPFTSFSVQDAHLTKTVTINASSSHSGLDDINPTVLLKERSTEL
# Method: (§1) Inhibition of the enzymes was determined using an enzyme immunoassay (EIA) kit (catalog no. 560101, Cayman Chemical, Ann Arbor, MI, USA) according to the methodology described by Jashim Uddin et al. [Jashim Uddin et al., Bioorg. Med. Chem., 12:5929-40].
# [2] = target: T2, Prostaglandin G/H synthase 1 (Ovis aries, UniProt P05979); test: In Vitro Cyclo-Oxygenase Inhibition Assay
# T2 sequence (P05979 whole entry): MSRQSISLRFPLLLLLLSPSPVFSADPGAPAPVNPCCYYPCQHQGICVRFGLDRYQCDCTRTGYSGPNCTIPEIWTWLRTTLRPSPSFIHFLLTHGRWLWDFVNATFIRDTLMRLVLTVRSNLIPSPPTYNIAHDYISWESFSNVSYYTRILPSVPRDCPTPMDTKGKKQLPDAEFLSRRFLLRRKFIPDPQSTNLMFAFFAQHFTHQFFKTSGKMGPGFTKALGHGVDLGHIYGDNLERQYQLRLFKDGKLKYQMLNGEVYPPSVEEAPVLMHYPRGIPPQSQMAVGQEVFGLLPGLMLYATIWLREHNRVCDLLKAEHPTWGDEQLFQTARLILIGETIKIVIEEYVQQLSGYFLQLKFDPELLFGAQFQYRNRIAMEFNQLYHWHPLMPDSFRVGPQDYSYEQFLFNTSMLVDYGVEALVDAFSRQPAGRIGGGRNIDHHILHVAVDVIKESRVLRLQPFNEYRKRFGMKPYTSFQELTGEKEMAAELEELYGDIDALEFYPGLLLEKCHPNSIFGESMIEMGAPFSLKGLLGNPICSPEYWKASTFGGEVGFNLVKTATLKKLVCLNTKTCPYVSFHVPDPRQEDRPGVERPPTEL
# Method: as §1
Compound,IC50 [1] [µM],IC50 [2] [µM]
"CC(C)Cc1ccc(C2=C/C(=C\c3ccc(Cl)cc3Cl)C(=O)O2)cc1 [3-(2,4-Dichlorobenzylidene)-5-(4-isobutylphenyl)-2(3H)-furanone (14)]",2.2,48.2
"CC(C)Cc1ccc(C2=C/C(=C\c3c(Cl)cccc3Cl)C(=O)O2)cc1 [3-(2,6-Dichlorobenzylidene)-5-(4-isobutylphenyl)-2(3H)-furanone (13)]",1.8,47.6
CC(C)Cc1ccc(C2=C/C(=C\c3ccccc3Cl)C(=O)O2)cc1 [3-(2-Chlorobenzylidene)-5-(4-isobutylphenyl)-2(3H)-furanone (3)],2.4,52.4
CC(C)Cc1ccc(C2=C/C(=C\c3ccc(F)cc3)C(=O)O2)cc1 [3-(4-Fluorobenzylidene)-5-(4-isobutylphenyl)-2(3H)-furanone (9)],3.8,68.3

# Reference: BindingDB's records for doi:10.3109/14756360903179435 (Jamia Hamdard, 2010)
